# Measurements: article PMC2408923, “N-methylisatin-beta-thiosemicarbazone derivative (SCH 16) is an inhibitor of Japanese encephalitis virus infection in vitro and in vivo” (Virology Journal, 2008)
# Read-outs that look alike come from different tables or passages of the source.
# Tests used:
# Den-2 virus (P23085) = assay: Plaque reduction assay, Den-2 in BHK 21 cells; type: cell-based, Dengue-2 virus; conditions: non-cytotoxic concentrations
# JEV, WNV and Den-2 = assay: Cytopathic effect (CPE) inhibition assay; type: cell-based; conditions: screen against JEV, doubling dilutions beginning with CC50
# [1] = test system: JEV replication in PS cells; assay: Kinetics of antiviral activity: staggered addition of SCH 16 to JEV infected PS cells; type: cell-based, Japanese Encephalitis Virus; conditions: for Inhibition of JEV replication (viral RNA, viral antigen, virus yield): read at 48 hours; for JEV antigen by immunofluorescence: Figure 3 Panel B
# [2] = test system: JEV replication in PS cells; assay: Minimum contact time: SCH 16 removed at time points from JEV infected PS cells; type: cell-based, Japanese Encephalitis Virus
# JEV = assay: In vivo evaluation by intracerebral JEV challenge; set-up: species or system Swiss albino mice
# JEV (P20778) [3] = assay: In vivo evaluation by peripheral (intraperitoneal) JEV challenge; set-up: species or system Swiss albino mice; conditions: for Protection: mice, 50LD50 JEV intraperitoneal
# in vitro [4] = conditions: pig
# in vitro [5] = conditions: hamster
# JEV (P20778) [6] = assay: Plaque reduction assay, JEV in PS cells; conditions: for IC50: Japanese encephalitis virus
# WNV (G22886) = assay: Plaque reduction assay, WNV in PS cells; conditions: for IC50: West Nile virus
# JEV translation = assay: In vitro translation of RNA from SCH 16 treated JEV infected PS cells
# [7] = read-out: IC50, plaque reduction, JEV (molar)
# [8] = read-out: IC50, plaque reduction, WNV (molar)
smiles,measurement,setting,value
COc1cc(-c2cnc(/N=C3\C(=O)N(CN4CCN(c5ccc([N+](=O)[O-])cc5)CC4)c4ccccc43)nc2N)cc(OC)c1OC [SCH 16],Antiviral activity against Den-2 plaque formation,Den-2 virus (P23085),No antiviral activity
same,Inhibition of CPE,"JEV, WNV and Den-2",showed inhibition of CPE
same,"Inhibition of JEV replication (viral RNA, viral antigen, virus yield)","[1]; 76 μg/ml added at 2, 4, 6 and 8 hours post-infection",completely inhibit
same,JEV antigen by immunofluorescence,"[1]; SCH 16 added at 0, 2, 4, 6 and 8 hrs post infection",undetectable
same,JEV antigen by immunofluorescence,"[1]; SCH 16 added at 10, 12 and 14 hours post infection",positive for viral antigen
same,"Inhibition of JEV replication (viral RNA, viral antigen, virus yield)",[1]; added beyond 8 hours post infection,did not completely inhibit
same,Minimum contact period required to completely inhibit virus replication,[2]; JEV infected PS cells,8 h
same,"Inhibition of virus replication (viral antigen, viral RNA, infectious virus yield)",[2]; SCH 16 in contact with infected cultures for more than 8 hours post-infection,complete inhibition of virus replication
same,"Inhibition of virus replication (viral antigen, viral RNA, infectious virus yield)",[2]; SCH16 withdrawn at earlier time points,no inhibition of virus replication
same,Day of death,"JEV; mouse, in vivo",9 days
same,Prolonged survival time between treated and untreated mice,"JEV; mouse, in vivo",3 days
same,Protection,"JEV; mouse, in vivo",no protection
same,Day post-infection when symptoms started appearing,"JEV; treated mice, intracerebral challenge, untreated sick by day 3",7 days
same,Protection,JEV (P20778) [3]; 200 mg/kg body weight oral twice daily,25%
same,Protection,JEV (P20778) [3]; 400 mg/kg body weight oral twice daily,50%
same,Protection,JEV (P20778) [3]; 500 mg/kg body weight oral twice daily,complete protection
same,Prevention of mortality,"JEV (P20778) [3]; mouse, in vivo",100%
same,Viral RNA in brain homogenate by RT-PCR,"JEV (P20778) [3]; mouse, in vivo",viral RNA was present
same,Viral antigen in brain smears by immunofluorescent staining,"JEV (P20778) [3]; mouse, in vivo",no viral antigen could be demonstrated
same,Virus isolation from brain tissue of surviving mice,"JEV (P20778) [3]; mouse, in vivo",could not be isolated
same,CC50,in vitro [4],76 µg/mL
same,CC50,in vitro [5],126 µg/mL
same,IC50,"JEV (P20778) [6]; read-out: IC50, concentration inhibiting 50% of the plaques produced by JEV",16 µg/mL
same,IC50,JEV (P20778) [6]; [7],25 µM
same,"Therapeutic Index (TI), CC50/IC50, JEV",JEV (P20778) [6]; ratio of CC50 to IC50,5
same,IC50,"WNV (G22886); read-out: IC50, concentration inhibiting 50% of the plaques produced by WNV",4 µg/mL
same,IC50,WNV (G22886); [8],6 µM
same,"Therapeutic Index (TI), CC50/IC50, WNV",WNV (G22886); ratio of CC50 to IC50,19
same,In vitro translation of viral RNA into JEV proteins,JEV translation; RNA from JEV infected cells treated with SCH 16 for 4 hours,failed to translate into JEV proteins
same,In vitro translation of viral RNA into JEV proteins,JEV translation; RNA from infected cells treated with SCH 16 at 10 hours,showed the presence of JEV proteins
"NC(=O)c1ncn([C@@H]2O[C@H](CO)[C@@H](O)[C@H]2O)n1 [Ribavirin, reference compound]",Antiviral activity against Den-2 plaque formation,Den-2 virus (P23085),dose dependent inhibition
same,CC50,in vitro [4],50 µg/mL
same,CC50,in vitro [5],200 µg/mL
same,IC50,"JEV (P20778) [6]; 72 h, read-out: IC50, plaque reduction, JEV",3.9 µg/mL
same,IC50,JEV (P20778) [6]; [7],16 µM
same,IC50,"WNV (G22886); read-out: IC50, plaque reduction, WNV",1.7 µg/mL
same,IC50,WNV (G22886); [8],7 µM
